According to US20200155555A1, “VITAMIN RECEPTOR DRUG DELIVERY CONJUGATES FOR TREATING INFLAMMATION” (Endocyte, Inc., priority 2007, published 2020):

How the values were obtained:
[1] = target: T1, DHFR (Mus musculus, UniProt P00375); test: DHFR activity in lysate of treated RAW264.7 cells; assay type: cell-based, murine; conditions: excess folic acid alone, 10 μM
T1 construct: endogenous in cells; host or cells: RAW264.7 cells
T1 sequence (P00375 1-187): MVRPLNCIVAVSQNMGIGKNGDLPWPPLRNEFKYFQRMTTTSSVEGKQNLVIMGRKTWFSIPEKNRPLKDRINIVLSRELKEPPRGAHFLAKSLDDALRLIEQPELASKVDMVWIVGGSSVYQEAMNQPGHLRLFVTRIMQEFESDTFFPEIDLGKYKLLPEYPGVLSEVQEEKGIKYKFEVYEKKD
Method: RAW264.7 cells were treated with vehicle (medium), EC0746 (100 nM) without or with 100-fold excess free folate, aminopterin (AMT, 100 nM), methotrexate (MTX, 100 nM), or excess free folate alone (10 μM). After 1 h incubation, the drug-containing media were replaced with fresh medium and the cells were allowed to incubate further for 24 h. At the end of incubation, the cells were lysed and the DHFR activity in cell lysates was measured using a commercial DHFR assay kit (Sigma-Aldrich, Saint Louis, Mo.).

[2] = Plasma pharmacokinetics after a single i.v. or s.c. dose of EC0565; conditions: rats
Method: The bioavailability of EC0565 after subcutaneous injection was measured. Female Lewis rats with rounded tip jugular vein catheters (Harlan) were fed regular rodent diet. The treated animals were given a single intravenous or subcutaneous dose of EC0565 at 2 μmol/kg. […] For subcutaneous administration (FIG. 52B), whole blood samples (300 μl) were collected from the animals at 1 min, 10 min, 30 min, 1 h, 2 h, 3 h, 4 h, 8 h, and 12 h post injection. The blood samples were placed into anti-coagulant tubes containing 1.7 mg/mL of K3-EDTA and 0.35 mg/mL of N-maleoyl-beta-alanine (0.35 mg/mL). Plasma samples were obtained by centrifugation for 3 min at ˜2,000 g and stored at −80° C. The amount of EC0565 and its released base drug (everolimus) were determined by HPLC using the EC0565 injection solution as the standard.

[3] = test system: Proliferating Cell Nuclear Antigen (PCNA) in RAW264.7 cells; test: Western blot for proliferating cell nuclear antigen; assay type: cell-based, murine; conditions: 1-1000 nM; EC0565 2 h treatment and 48 h chase, everolimus 48 h
[4] = test system: rats with adjuvant-induced arthritis (AIA); test: Adjuvant-induced arthritis (AIA) model
Method: Female Lewis rats were fed a folate-deficient diet (Harlan Teklad, Indianapolis, Ind.) for 9-10 days prior to arthritis induction. The adjuvant-induced arthritis (AIA) was induced by intradermal inoculation (at the base of tail) of 0.5 mg of heat-killed Mycobacteria butyricum (BD Diagnostic Systems, Sparks, Md.) in 100 μL light mineral oil (Sigma). Ten days after arthritis induction, paw edema in rats was assessed using a modified arthritis scoring system: 0=no arthritis; 1=swelling in one type of joint; 2=swelling in two types of joint; 3=swelling in three types of joint; 4=swelling of the entire paw. A total score for each rat is calculated by summarizing the scores for each of the four paws, giving a maximum score of 16 for each rat. On Day 10 post arthritis induction, rats with a total arthritis score of ≥2 were removed from the study and the remaining rats were distributed evenly across the control and treatment groups (n=5 for all groups except that n=2-3 for healthy controls). All treatments started on Day 10 unless mentioned otherwise. […]
Rats with adjuvant arthritis were treated subcutaneously with EC0932 (250 nmol/kg) in the absence or presence of 500-fold excess of EC0923 (125 μmol/kg) on days 10, 13, 17, and 20 post arthritis induction. The animals in the healthy and arthritis control groups were left untreated. The arthritis scores and animal body weights were recorded three times a week (see FIG. 19A, B). At the completion of study (day 24), the rats were euthanized by CO2 asphyxiation and processed for paw and spleen weights (see FIG. 20A, B).
The rat adjuvant induced arthritis (AIA) model resembles the characteristics of RA in humans and has been widely used to study the impact of novel anti-inflammatory agents.

[5] = oral everolimus 500 nmol/kg tiw

Nc1nc2ncc(CNc3ccc(C(=O)N[C@@H](CCC(=O)O)C(=O)O)cc3)nc2c(=O)[nH]1 [folic acid]
effect on DHFR activity in RAW264.7 cells [1]: did not have any impact

CO[C@H]1C[C@@H]2CC[C@@H](C)[C@@](O)(O2)C(=O)C(=O)N2CCCC[C@H]2C(=O)O[C@H]([C@H](C)C[C@@H]2CC[C@@H](OCCOC(=O)OCCSSC[C@H](NC(=O)[C@H](CCC(=O)NC[C@H](O)[C@@H](O)[C@H](O)[C@H](O)CO)NC(=O)[C@H](CCC(=O)O)NC(=O)[C@H](CCC(=O)NC[C@H](O)[C@@H](O)[C@H](O)[C@H](O)CO)NC(=O)[C@H](CCC(=O)O)NC(=O)[C@H](CCC(=O)NC[C@H](O)[C@@H](O)[C@H](O)[C@H](O)CO)NC(=O)CC[C@H](NC(=O)c3ccc(NCc4cnc5nc(N)[nH]c(=O)c5n4)cc3)C(=O)O)C(=O)O)[C@H](OC)C2)CC(=O)[C@H](C)/C=C(\C)[C@@H](O)[C@@H](OC)C(=O)[C@H](C)C[C@H](C)/C=C/C=C/C=C/1C [EC0565, Everolimus-EC0488 Conjugate]
free drug (everolimus) exposure/release in plasma, based on AUC ([2]; single intravenous dose of EC0565, 2 μmol/kg): approximately 18% | free drug (everolimus) exposure/release in plasma, based on AUC ([2]; single subcutaneous dose of EC0565, 2 μmol/kg): ~17%

CO[C@H]1C[C@@H]2CC[C@@H](C)[C@@](O)(O2)C(=O)C(=O)N2CCCC[C@H]2C(=O)O[C@H]([C@H](C)C[C@@H]2CC[C@@H](OCCO)[C@H](OC)C2)CC(=O)[C@H](C)/C=C(\C)[C@@H](O)[C@@H](OC)C(=O)[C@H](C)C[C@H](C)/C=C/C=C/C=C/1C [everolimus]
effect on PCNA in synchronized RAW264.7 cells [3]: inhibited PCNA activities | spleen weight compared to arthritic controls ([4]; 500 nmol/kg 3 times a week, EC0565 sc, everolimus oral): significantly decreased spleen weight compared to arthritic controls | decrease in dorsal to ventral paw thickness [4, 5]: 44% | decrease in summed histological score [4, 5]: 52% | reductions in all scored histology parameters vs untreated controls [4, 5]: 44-61%
